In patent publication US7786141B2 (Vertex Pharmaceuticals Incorporated, priority 2004, dated 2010):

Legend:
[1] = biological target: T1, M1 muscarinic receptor (Homo sapiens, UniProt P11229); test: Functional mobilization of intracellular calcium (FLIPR) in M1-CHO cells; format: cell-based; conditions: Table 4; for Emax: 100% efficacy is the maximum response obtained with the Carbachol control; for M1 Activity: M1 receptor, calcium mobilization (FLIPR)
T1 construct: expressed in transfected cells; host or cells: CHO (M1-CHO)
T1 sequence (P11229 1-460): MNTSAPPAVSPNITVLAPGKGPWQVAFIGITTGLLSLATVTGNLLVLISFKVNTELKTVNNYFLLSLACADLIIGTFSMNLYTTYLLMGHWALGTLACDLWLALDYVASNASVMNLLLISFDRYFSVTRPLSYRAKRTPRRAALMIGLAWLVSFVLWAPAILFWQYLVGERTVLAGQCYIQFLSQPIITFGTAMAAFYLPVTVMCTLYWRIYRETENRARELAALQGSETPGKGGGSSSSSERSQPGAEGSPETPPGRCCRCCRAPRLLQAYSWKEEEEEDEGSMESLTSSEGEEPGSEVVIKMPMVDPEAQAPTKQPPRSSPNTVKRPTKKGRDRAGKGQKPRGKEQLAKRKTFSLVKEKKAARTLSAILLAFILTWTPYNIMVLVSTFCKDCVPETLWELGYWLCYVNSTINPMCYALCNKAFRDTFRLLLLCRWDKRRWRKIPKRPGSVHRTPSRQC
Procedure, shortened: (§1)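 Two modes: direct compound addition for agonism, or 15 min compound pre-incubation (or co-application) before carbachol at EC80 for inhibition. Calcium signal from Fluo-3 AM or Calcium 3 dye in CHO cells, 1 mM probenecid, pH 7.4, read 60 sec at 488/540 nm; DMSO 0.5% final.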

[2] = biological target: T2, M4 muscarinic receptor (Homo sapiens, UniProt P08173); test: Functional mobilization of intracellular calcium (FLIPR) in M4-CHO cells; format: cell-based; conditions: Table 4; for Emax: 100% efficacy is the maximum response obtained with the Carbachol control; for M4 Activity: M4 receptor, calcium mobilization (FLIPR)
T2 construct: expressed in transfected cells; host or cells: CHO (M4-CHO)
T2 sequence (P08173 1-479): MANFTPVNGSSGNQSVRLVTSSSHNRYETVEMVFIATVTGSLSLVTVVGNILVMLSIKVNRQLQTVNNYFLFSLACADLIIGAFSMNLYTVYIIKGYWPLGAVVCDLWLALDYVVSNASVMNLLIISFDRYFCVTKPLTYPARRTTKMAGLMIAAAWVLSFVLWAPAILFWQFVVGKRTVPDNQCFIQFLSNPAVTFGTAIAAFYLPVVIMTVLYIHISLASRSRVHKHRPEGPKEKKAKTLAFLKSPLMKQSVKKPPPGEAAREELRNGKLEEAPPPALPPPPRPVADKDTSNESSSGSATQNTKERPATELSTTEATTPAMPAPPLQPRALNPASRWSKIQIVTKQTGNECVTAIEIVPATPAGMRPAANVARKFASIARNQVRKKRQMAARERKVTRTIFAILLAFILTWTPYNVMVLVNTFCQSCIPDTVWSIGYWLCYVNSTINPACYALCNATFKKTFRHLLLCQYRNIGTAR
Procedure, shortened: as §1

SMILES | Emax [1] | M1 Activity [1] | Emax [2] | M4 Activity [2]
COCCN1CC2(CCN(C3CCCCC3)CC2)c2cc(F)ccc21 [compound 925] | 25 to 100% | xxx (activity was measured to be less than 2.0 μM) | 25 to 100% | xxx (activity was measured to be less than 2.0 μM)
CCOC(=O)C1CC1CN1CCC2(CC1)C[C@H](NC(C)=O)c1ccccc12 (stereo partly shown) [compound 926] | 25 to 100% | x (activity was measured to be greater than 5.0 μM) | < 25% | x (activity was measured to be greater than 5.0 μM)
CCOC(=O)N1C2CCC1CC(N1CCC3(C[C@H](NC(C)=O)c4cc(F)ccc43)C1)C2 (stereo partly shown) [compound 928] | 25 to 100% | xxx (activity was measured to be less than 2.0 μM) | 25 to 100% | xxx (activity was measured to be less than 2.0 μM)
CC#CCOC(=O)N1CC[C@@H](CN2CCC3(CC2)CN(C(C)=O)c2cccc(C)c23)C1 [compound 929] | 25 to 100% | xxx (activity was measured to be less than 2.0 μM) | 25 to 100% | xxx (activity was measured to be less than 2.0 μM)
CCOC(=O)N1CCC(N2CCC3(CC2)CN(C(C)=O)c2c(C4=CCCC4)cccc23)CC1 [compound 930] | < 25% | x (activity was measured to be greater than 5.0 μM) | < 25% | x (activity was measured to be greater than 5.0 μM)
COc1cc2c(cc1OC)C1(CCN(CC3CCCCC3)CC1)C[C@@H]2N(C(C)=O)[C@@H](C)c1ccccc1 [compound 931] | < 25% | x (activity was measured to be greater than 5.0 μM) | < 25% | x (activity was measured to be greater than 5.0 μM)
CC(=O)N1CC2(CCN(C3CCN(C(=O)OC4CCOC4)CC3)CC2)c2ccccc21 (stereo not shown) [compound 932] | 25 to 100% | x (activity was measured to be greater than 5.0 μM) | < 25% | x (activity was measured to be greater than 5.0 μM)
Cc1ccc2c(c1)C1(CCN(C3CC4CCC3C4)CC1)CN2C(=O)c1ccccc1 (stereo not shown) [compound 933] | < 25% | x (activity was measured to be greater than 5.0 μM) | < 25% | x (activity was measured to be greater than 5.0 μM)
CC(=O)N[C@H]1CC2(CCN(CC3CCCC3)CC2)c2ccccc21 [compound 934] | 25 to 100% | xx (activity was measured to be between 2.0 μM and 5.0 μM) | 25 to 100% | xxx (activity was measured to be less than 2.0 μM)
Cc1ccc2c(c1)/C(=N/O)CC21CCN(CC2C[C@H]3CCC2C3)CC1 (stereo partly shown) [compound 935] | 25 to 100% | x (activity was measured to be greater than 5.0 μM) | 25 to 100% | xxx (activity was measured to be less than 2.0 μM)
COC(=O)N1CCCC(CCN2CCC3(CCC(NC(C)=O)c4ccccc43)CC2)C1 (stereo not shown) [compound 936] | 25 to 100% | xxx (activity was measured to be less than 2.0 μM) | < 25% | x (activity was measured to be greater than 5.0 μM)
CN(C)C(=O)N1CC2(CCN(C3CCN(C(=O)OCC(F)(F)F)CC3)CC2)c2cc(F)ccc21 [compound 938] | 25 to 100% | xxx (activity was measured to be less than 2.0 μM) | 25 to 100% | xxx (activity was measured to be less than 2.0 μM)
CC#CCOC(=O)N1CC[C@@H](CN2CCC3(CC2)CN(C(=O)N(C)C)c2ccc(F)cc23)C1 [compound 939] | 25 to 100% | xxx (activity was measured to be less than 2.0 μM) | 25 to 100% | xxx (activity was measured to be less than 2.0 μM)
CCOC(=O)N1CC[C@H](CN2CCC3(CC2)CN(C(C)=O)c2cccc(C)c23)C1 [compound 940] | 25 to 100% | xxx (activity was measured to be less than 2.0 μM) | 25 to 100% | xxx (activity was measured to be less than 2.0 μM)
CCOC(=O)N1CCC(N2CCC3(CC2)CN(c2cccnc2)c2ccc(F)cc23)CC1 [compound 941] | 25 to 100% | xxx (activity was measured to be less than 2.0 μM) | 25 to 100% | xxx (activity was measured to be less than 2.0 μM)
CCOC(=O)N1CCC(N2CCC3(CC2)CN(c2ccc(C)nn2)c2ccc(F)cc23)CC1 [compound 942] | > 100% | xxx (activity was measured to be less than 2.0 μM) | 25 to 100% | xxx (activity was measured to be less than 2.0 μM)
CC(=O)N1CC2(CCN(C3CCN(c4nc(C)ns4)CC3)CC2)c2cc(F)ccc21 [compound 943] | 25 to 100% | xxx (activity was measured to be less than 2.0 μM) | 25 to 100% | xxx (activity was measured to be less than 2.0 μM)
CCNC(=O)N1CC2(CCN(C3CCN(C(=O)OCC)CC3)CC2)c2ccccc21 [compound 944] | 25 to 100% | xxx (activity was measured to be less than 2.0 μM) | 25 to 100% | xxx (activity was measured to be less than 2.0 μM)
O=C1CCCN1[C@H]1CCC2(CCN(C3CCCCCC3)CC2)c2ccccc21 [compound 945] | 25 to 100% | xxx (activity was measured to be less than 2.0 μM) | 25 to 100% | xxx (activity was measured to be less than 2.0 μM)
O=C(N[C@H]1CC2(CCN(CC3CCCCC3)CC2)c2ccccc21)N1CCCC1 [compound 946] | < 25% | x (activity was measured to be greater than 5.0 μM) | < 25% | xxx (activity was measured to be less than 2.0 μM)
C#CCOC(=O)N1CCC(N2CCC3(CC2)CN(C(C)=O)c2ccccc23)CC1 [compound 947] | > 100% | xxx (activity was measured to be less than 2.0 μM) | 25 to 100% | xxx (activity was measured to be less than 2.0 μM)
CCOC(=O)N1CCC(CN2CCC3(CC2)CN(C(C)=O)c2ccc(S(C)(=O)=O)cc23)CC1 [compound 948] | < 25% | x (activity was measured to be greater than 5.0 μM) | < 25% | x (activity was measured to be greater than 5.0 μM)
CCOC(=O)N1C2CCC1CC(N1CCC3(CC1)CC(=O)c1cc(C)ccc13)C2 (stereo not shown) [compound 949] | 25 to 100% | xxx (activity was measured to be less than 2.0 μM) | 25 to 100% | xxx (activity was measured to be less than 2.0 μM)
CCOC(=O)N1CCC(N2CCC3(CC2)CN(C(C)=O)c2ccc(-c4ccc(F)cc4)cc23)CC1 [compound 950] | 25 to 100% | xx (activity was measured to be between 2.0 μM and 5.0 μM) | 25 to 100% | xx (activity was measured to be between 2.0 μM and 5.0 μM)
CCOC(=O)N1CCC(N2CCC3(CC2)CN(C2CCC(=O)CC2)c2ccc(F)cc23)CC1 [compound 951] | 25 to 100% | xxx (activity was measured to be less than 2.0 μM) | 25 to 100% | xxx (activity was measured to be less than 2.0 μM)
